According to ChEMBL document CHEMBL1201862, “PubChem BioAssay data set” (2004):
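Test compounds were applied to cells in 96-well plates for 48 hours at 5 doses. At the GI50, growth is halved.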 The source made the active and inactive calls. Rule as the data show it: active = GI50 up to about 1.1 µM and inactive = higher.

Tests used:
Experiment in all cases: DTP human tumour cell line panel, 48 h
NCI-H226 = tested on: NCI-H226
Hs-578T = tested on: Hs-578T
TK-10 = tested on: TK-10
ACHN = tested on: ACHN
KM12 = tested on: KM12
T47D = tested on: T47D
HOP-92 = tested on: HOP-92
UACC-257 = tested on: UACC-257
EKVX = tested on: EKVX
CCRF-CEM = tested on: CCRF-CEM
NCI-H522 = tested on: NCI-H522
NCI-H460 = tested on: NCI-H460
SK-MEL-28 = tested on: SK-MEL-28
SF-295 = tested on: SF-295
LOX IMVI = tested on: LOX IMVI
HOP-62 = tested on: HOP-62
OVCAR-4 = tested on: OVCAR-4
SN12C = tested on: SN12C
DU-145 = tested on: DU-145
RXF 393 = tested on: RXF 393
HCC 2998 = tested on: HCC 2998
SF-268 = tested on: SF-268
MCF7 = tested on: MCF7
MDA-N = tested on: MDA-N
Malme-3M = tested on: Malme-3M
NCI-H23 = tested on: NCI-H23
UACC-62 = tested on: UACC-62
A549 = tested on: A549
NCI/ADR-RES = tested on: NCI/ADR-RES
A498 = tested on: A498
MDA-MB-435 = tested on: MDA-MB-435
M14 = tested on: M14
CAKI-1 = tested on: CAKI-1
IGROV-1 = tested on: IGROV-1
SNB-19 = tested on: SNB-19
786-0 = tested on: 786-0
OVCAR-8 = tested on: OVCAR-8
MOLT-4 = tested on: MOLT-4
OVCAR-3 = tested on: OVCAR-3
U-251 = tested on: U-251
SK-OV-3 = tested on: SK-OV-3
COLO 205 = tested on: COLO 205
SW-620 = tested on: SW-620
K562 = tested on: K562
MDA-MB-231 = tested on: MDA-MB-231
SF-539 = tested on: SF-539
OVCAR-5 = tested on: OVCAR-5
HCT-15 = tested on: HCT-15
BT-549 = tested on: BT-549
SK-MEL-5 = tested on: SK-MEL-5
PC-3 = tested on: PC-3
HCT-116 = tested on: HCT-116
HT-29 = tested on: HT-29
UO-31 = tested on: UO-31
RPMI-8226 = tested on: RPMI-8226
SK-MEL-2 = tested on: SK-MEL-2
HL-60 = tested on: HL-60
SNB-75 = tested on: SNB-75
SR = tested on: SR

CC(O)CN1c2ccccc2Sc2ccccc21 (stereo not given)
GI50 (NCI-H226): > 100 µM (inactive) | GI50 (Hs-578T): > 100 µM (inactive) | GI50 (TK-10): > 100 µM (inactive) | GI50 (ACHN): > 100 µM (inactive) | GI50 (KM12): > 100 µM (inactive) | GI50 (T47D): > 100 µM (inactive) | GI50 (HOP-92): > 100 µM (inactive) | GI50 (UACC-257): > 100 µM (inactive) | GI50 (EKVX): > 100 µM (inactive) | GI50 (CCRF-CEM): > 100 µM (inactive) | GI50 (NCI-H522): > 100 µM (inactive) | GI50 (NCI-H460): > 100 µM (inactive) | GI50 (SK-MEL-28): > 100 µM (inactive) | GI50 (SF-295): > 100 µM (inactive) | GI50 (LOX IMVI): > 100 µM (inactive) | GI50 (HOP-62): > 100 µM (inactive) | GI50 (OVCAR-4): > 100 µM (inactive) | GI50 (SN12C): > 100 µM (inactive) | GI50 (DU-145): > 100 µM (inactive) | GI50 (RXF 393): > 100 µM (inactive) | GI50 (HCC 2998): > 100 µM (inactive) | GI50 (SF-268): > 100 µM (inactive) | GI50 (MCF7): > 100 µM (inactive) | GI50 (MDA-N): > 100 µM (inactive) | GI50 (Malme-3M): > 100 µM (inactive) | GI50 (NCI-H23): > 100 µM (inactive) | GI50 (UACC-62): > 100 µM (inactive) | GI50 (A549): > 100 µM (inactive) | GI50 (NCI/ADR-RES): > 100 µM (inactive) | GI50 (A498): > 100 µM (inactive) | GI50 (MDA-MB-435): > 100 µM (inactive) | GI50 (M14): > 100 µM (inactive) | GI50 (CAKI-1): > 100 µM (inactive) | GI50 (IGROV-1): > 100 µM (inactive) | GI50 (SNB-19): > 100 µM (inactive) | GI50 (786-0): > 100 µM (inactive) | GI50 (OVCAR-8): > 100 µM (inactive) | GI50 (MOLT-4): > 100 µM (inactive) | GI50 (OVCAR-3): > 100 µM (inactive) | GI50 (U-251): > 100 µM (inactive) | GI50 (SK-OV-3): > 100 µM (inactive) | GI50 (COLO 205): > 100 µM (inactive) | GI50 (SW-620): > 100 µM (inactive) | GI50 (K562): > 100 µM (inactive) | GI50 (MDA-MB-231): > 100 µM (inactive) | GI50 (SF-539): > 100 µM (inactive) | GI50 (OVCAR-5): > 100 µM (inactive) | GI50 (HCT-15): > 100 µM | GI50 (BT-549): > 100 µM (inactive) | GI50 (SK-MEL-5): > 100 µM (inactive) | GI50 (PC-3): > 100 µM (inactive) | GI50 (HCT-116): > 100 µM (inactive) | GI50 (HT-29): > 100 µM (inactive) | GI50 (UO-31): > 100 µM (inactive)

COc1ccc(/C=C2\CCC(C)C3C2=NN(c2ccccc2)C3c2ccc(OC)c(OC)c2)cc1OC (stereo not given)
GI50 (NCI-H226): 2.69 µM (inactive) | GI50 (Hs-578T): 7.29 µM (inactive) | GI50 (TK-10): 3.22 µM (inactive) | GI50 (ACHN): 3.84 µM (inactive) | GI50 (KM12): 2.46 µM (inactive) | GI50 (T47D): 1.71 µM (inactive) | GI50 (UACC-257): 4.34 µM (inactive) | GI50 (EKVX): 1.74 µM (inactive) | GI50 (CCRF-CEM): 1.87 µM (inactive) | GI50 (RPMI-8226): 1.23 µM (inactive) | GI50 (SK-MEL-28): 4.97 µM (inactive) | GI50 (SF-295): 2.64 µM (inactive) | GI50 (LOX IMVI): 2.49 µM (inactive) | GI50 (SN12C): 4.1 µM (inactive) | GI50 (DU-145): 3.01 µM (inactive) | GI50 (RXF 393): 3.23 µM (inactive) | GI50 (SF-268): 3.89 µM (inactive) | GI50 (MCF7): 3.21 µM (inactive) | GI50 (SK-MEL-2): 3.04 µM (inactive) | GI50 (MDA-N): 3.94 µM (inactive) | GI50 (Malme-3M): 3.08 µM (inactive) | GI50 (NCI-H23): 4.21 µM (inactive) | GI50 (UACC-62): 3.43 µM (inactive) | GI50 (NCI/ADR-RES): 3.18 µM (inactive) | GI50 (A498): 3.42 µM (inactive) | GI50 (MDA-MB-435): 3.64 µM (inactive) | GI50 (M14): 4.66 µM (inactive) | GI50 (CAKI-1): 3.94 µM (inactive) | GI50 (IGROV-1): 2.32 µM (inactive) | GI50 (SNB-19): 8 µM (inactive) | GI50 (786-0): 3.48 µM (inactive) | GI50 (OVCAR-8): 3.28 µM (inactive) | GI50 (MOLT-4): 2.7 µM (inactive) | GI50 (OVCAR-3): 5.04 µM (inactive) | GI50 (U-251): 4.33 µM (inactive) | GI50 (SK-OV-3): 4.23 µM (inactive) | GI50 (COLO 205): 4.22 µM (inactive) | GI50 (SW-620): 4.22 µM (inactive) | GI50 (K562): 2.01 µM (inactive) | GI50 (MDA-MB-231): 4.19 µM (inactive) | GI50 (SF-539): 2.48 µM (inactive) | GI50 (OVCAR-5): 2.65 µM (inactive) | GI50 (HL-60): 1.54 µM (inactive) | GI50 (HCT-15): 3.01 µM | GI50 (BT-549): 3.24 µM (inactive) | GI50 (SK-MEL-5): 3.61 µM (inactive) | GI50 (PC-3): 3.5 µM (inactive) | GI50 (SNB-75): 1.18 µM (inactive) | GI50 (HCT-116): 2.07 µM (inactive) | GI50 (HT-29): 3.54 µM (inactive) | GI50 (UO-31): 6.12 µM (inactive)

CC(C)(C)c1cc(-c2cc(C(C)(C)C)[nH]n2)[nH]n1
GI50 (NCI-H226): > 100 µM (inactive) | GI50 (Hs-578T): > 100 µM (inactive) | GI50 (TK-10): > 100 µM (inactive) | GI50 (ACHN): > 100 µM (inactive) | GI50 (T47D): > 100 µM (inactive) | GI50 (HOP-92): > 100 µM (inactive) | GI50 (UACC-257): > 100 µM (inactive) | GI50 (EKVX): > 100 µM (inactive) | GI50 (CCRF-CEM): 39.4 µM (inactive) | GI50 (RPMI-8226): > 100 µM (inactive) | GI50 (NCI-H522): > 100 µM (inactive) | GI50 (NCI-H460): > 100 µM (inactive) | GI50 (SK-MEL-28): > 100 µM (inactive) | GI50 (SF-295): > 100 µM (inactive) | GI50 (LOX IMVI): 93.3 µM (inactive) | GI50 (HOP-62): > 100 µM (inactive) | GI50 (OVCAR-4): > 100 µM (inactive) | GI50 (SN12C): > 100 µM (inactive) | GI50 (DU-145): > 100 µM (inactive) | GI50 (RXF 393): > 100 µM (inactive) | GI50 (HCC 2998): > 100 µM (inactive) | GI50 (SF-268): > 100 µM (inactive) | GI50 (MCF7): > 100 µM (inactive) | GI50 (SK-MEL-2): > 100 µM (inactive) | GI50 (MDA-N): > 100 µM (inactive) | GI50 (Malme-3M): > 100 µM (inactive) | GI50 (NCI-H23): > 100 µM (inactive) | GI50 (UACC-62): > 100 µM (inactive) | GI50 (A549): > 100 µM (inactive) | GI50 (A498): > 100 µM (inactive) | GI50 (MDA-MB-435): > 100 µM (inactive) | GI50 (M14): > 100 µM (inactive) | GI50 (CAKI-1): > 100 µM (inactive) | GI50 (SR): 39.1 µM (inactive) | GI50 (IGROV-1): > 100 µM (inactive) | GI50 (SNB-19): > 100 µM (inactive) | GI50 (786-0): > 100 µM (inactive) | GI50 (MOLT-4): 96.2 µM (inactive) | GI50 (OVCAR-3): > 100 µM (inactive) | GI50 (U-251): > 100 µM (inactive) | GI50 (SK-OV-3): > 100 µM (inactive) | GI50 (COLO 205): > 100 µM (inactive) | GI50 (SW-620): > 100 µM (inactive) | GI50 (K562): 47.5 µM (inactive) | GI50 (MDA-MB-231): > 100 µM (inactive) | GI50 (SF-539): > 100 µM (inactive) | GI50 (OVCAR-5): > 100 µM (inactive) | GI50 (HL-60): 46.8 µM (inactive) | GI50 (HCT-15): > 100 µM | GI50 (BT-549): > 100 µM (inactive) | GI50 (SK-MEL-5): > 100 µM (inactive) | GI50 (PC-3): > 100 µM (inactive) | GI50 (HCT-116): > 100 µM (inactive) | GI50 (HT-29): > 100 µM (inactive) | GI50 (UO-31): > 100 µM (inactive)
